Measurements reported in patent EP2465840A1, “Terpene ether” (CABB GmbH, priority 2010, dated 2012).
Entries after “also recorded” stand apart in the source; their conditions may differ.

Legend:
Type in all cases: physicochemical
[1] = Visual evaluation of foam (foam appearance, bubble size); parameters: key to Blasengröße nach 1 min. / Blasengröße nach 5 min.: klein (1); mittel (2); mittel-groß (3); groß (4); sehr groß (5); key to Aussehen des Schaums nach 1 min. / Aussehen des Schaums nach 5 min.: verschwindend (1); locker (2); mittelkompakt (3); sehr kompakt (4); settings: Reinigungsformulierung enthaltend Dinatriumlaurylsuccinat (wässrig)
Method: Die Qualität des Schaums wurde visuell nach der folgenden Methode festgestellt: 100 g der Lösung mit 0,5 % WAS wurden in einen 250 ml Glaszylinder mit Schraubverschluss und einem Innendurchmesser von 35 mm überführt. Der Zylinder wurde 10 mal gedreht und die Blasengröße und die Schaumkompaktheit wurden nach einer Minute nach dem Mischen und nach 5 Minuten ermittelt. Dabei erfolgte die Beurteilung auf der Grundlage der folgenden beschreibenden Parameter:
Aussehen des Schaums: verschwindend (1), locker (2), mittelkompakt (3), sehr kompakt (4)
Blasengröße: klein (1), mittel (2), mittel-groß (3), groß (4), sehr groß (5) Tabelle 4: […]

[2] = Foam height and foam stability of formulation; settings: Reinigungsformulierung enthaltend Dinatriumlaurylsuccinat (wässrig); for h1: Schaumhöhe 5 Minuten nach dem Mischen; for h1 / h0: Lösung mit 0,5 % WAS; for h0: Schaumhöhe eine Minute nach dem Mischen; for Stabilität: Schaumstabilität (h1/h0)*100
Method: Die Schaumhöhe der Formulierungen wurde nach folgender Methode ermittelt: In einem 400 ml Becher wurden 100 g einer wässrigen Lösung mit 0,5 % WAS hergestellt. Für eine Minute wurde die Lösung bei […] runden […] wurde die […] Minute […]0) und 5 […]. Die Schaumstabilität in % ergibt sich dann über (h1/h0)*100.

[3] = Brookfield viscosity (25°C) of cleaning formulation 24 h after addition of terpene ether
Method: Im Rahmen der vorliegenden Erfindung wird die Brookfield-Viskosität einer wässrigen Zusammensetzung vorzugsweise mittels einem RTV Brookfield-Viskosimeter bei 25°C ermittelt, besonders bevorzugt mit einer Spindel # 3 oder # 4.
Die in Tabelle 1 angegebene Reinigungsformulierung wurde untersucht. Tabelle 1: Reinigungsformulierung (WAS 15 %)
Zu dieser Formulierung wurden NP 1 oder NP 27 gegeben. Die gemessenen Brookfield-Viskositätswerte nach 24 Stunden werden in Tabelle 2 und 3 zusammengefasst. Tabelle 2: Brookfield-Viskosität (25°C)
Zu dieser Formulierung wurden NP 1 oder NP 27 sowie danach Natriumchlorid gegeben. Die gemessenen Brookfield-Viskositätswerte nach 24 Stunden werden in den folgenden Tabellen zusammengefasst. Tabelle 13: Brookfield-Viskosität (25°C)

[4] = Appearance of cleaning formulation after 24 h
[5] = pH of cleaning formulation after addition of terpene ether
[6] = Reinigungsformulierung enthaltend Coco Glucosid, +0,5 %
[7] = Reinigungsformulierung enthaltend Coco Glucosid, +1 %
[8] = Reinigungsformulierung enthaltend Coco Glucosid, +5 %
[9] = Reinigungsformulierung enthaltend Dinatriumlaurylsuccinat (wässrig), +0,5 %, nach 24 Stunden
[10] = Reinigungsformulierung enthaltend Dinatriumlaurylsuccinat (wässrig), +1 %, nach 24 Stunden
[11] = Reinigungsformulierung enthaltend Dinatriumlaurylsuccinat (wässrig), +5 %, nach 24 Stunden
[12] = Reinigungsformulierung enthaltend Natriumlaurylethersulfat, Dinatriumcocoamphodiacetat, 0,5 % NaCl, +0,5 %, nach 24 Stunden
[13] = Reinigungsformulierung enthaltend Natriumlaurylethersulfat, Dinatriumcocoamphodiacetat, 0,5 % NaCl, +0,25 %, nach 24 Stunden
[14] = Reinigungsformulierung enthaltend Natriumlaurylethersulfat, Dinatriumcocoamphodiacetat, 0,5 % NaCl, +1 %, nach 24 Stunden
[15] = Reinigungsformulierung enthaltend Natriumlaurylethersulfat, Dinatriumcocoamphodiacetat, 0,5 % NaCl, +2 %, nach 24 Stunden
[16] = Reinigungsformulierung enthaltend Natriumlaurylethersulfat, Dinatriumcocoamphodiacetat, 1 % NaCl, +0,5 %, nach 24 Stunden
[17] = Reinigungsformulierung enthaltend Natriumlaurylethersulfat, Dinatriumcocoamphodiacetat, 1 % NaCl, +0,25 %, nach 24 Stunden
[18] = Reinigungsformulierung enthaltend Natriumlaurylethersulfat, Dinatriumcocoamphodiacetat, 1 % NaCl, +1 %, nach 24 Stunden
[19] = Reinigungsformulierung enthaltend Natriumlaurylethersulfat, Dinatriumcocoamphodiacetat, 1 % NaCl, +2 %, nach 24 Stunden
[20] = Reinigungsformulierung enthaltend Natriumlaurylethersulfat, Dinatriumcocoamphodiacetat, +0,5 %, nach 24 Stunden
[21] = Reinigungsformulierung enthaltend Natriumlaurylethersulfat, Dinatriumcocoamphodiacetat, +0,25 %, nach 24 Stunden
[22] = Reinigungsformulierung enthaltend Natriumlaurylethersulfat, Dinatriumcocoamphodiacetat, +1 %, nach 24 Stunden
[23] = Reinigungsformulierung enthaltend Natriumlaurylethersulfat, Dinatriumcocoamphodiacetat, +2 %, nach 24 Stunden
[24] = Reinigungsformulierung enthaltend Dinatriumlaurylsuccinat (wässrig), +0,5 %
[25] = Reinigungsformulierung enthaltend Dinatriumlaurylsuccinat (wässrig), +1 %
[26] = Reinigungsformulierung enthaltend Dinatriumlaurylsuccinat (wässrig), +5 %

## CC1(C)C2CCC1(C)C(OCC1COC(=O)O1)C2 (stereo not drawn) [NP 27]
[1]; +0,5 %
  Aussehen des Schaums nach 1 min.: 2
  Aussehen des Schaums nach 5 min.: 1
  Blasengröße nach 1 min.: 4
  Blasengröße nach 5 min.: 5
[1]; +1 %
  Aussehen des Schaums nach 1 min.: 3
  Aussehen des Schaums nach 5 min.: 1
  Blasengröße nach 1 min.: 3
  Blasengröße nach 5 min.: 5
[1]; +5 %
  Aussehen des Schaums nach 1 min.: 3
  Aussehen des Schaums nach 5 min.: 1
  Blasengröße nach 1 min.: 4
  Blasengröße nach 5 min.: 5
[2]; 0,5 %
  h1: 210 mm
  h0: 240 mm
  Stabilität: 88%
[2]; 1 %
  h1: 180 mm
  h0: 215 mm
  Stabilität: 84%
[2]; 5 %
  h1: 175 mm
  h0: 210 mm
  Stabilität: 83%
[3]; [6]
  BF-Viskosität (2,5 rpm): 16400 mPas
  BF-Viskosität (5 rpm): 15800 mPas
[3]; [7]
  BF-Viskosität (2,5 rpm): 1000 mPas
  BF-Viskosität (5 rpm): 900 mPas
[3]; [8]
  BF-Viskosität (2,5 rpm): 80 mPas
  BF-Viskosität (5 rpm): 60 mPas
[3]; [9]
  BF-Viskosität (2,5 rpm): 6800 mPas
  BF-Viskosität (5 rpm): 6800 mPas
[3]; [10]
  BF-Viskosität (2,5 rpm): 30400 mPas
  BF-Viskosität (5 rpm): 27800 mPas
[3]; [11]
  BF-Viskosität (2,5 rpm): 60 mPas
  BF-Viskosität (5 rpm): 40 mPas
[3]; [12]
  BF-Viskosität (2,5 rpm): 35200 mPas
  BF-Viskosität (5 rpm): 31000 mPas
[3]; [13]
  BF-Viskosität (2,5 rpm): 19600 mPas
  BF-Viskosität (5 rpm): 19000 mPas
[3]; [14]
  BF-Viskosität (2,5 rpm): 40800 mPas
  BF-Viskosität (5 rpm): 36800 mPas
[3]; [15]
  BF-Viskosität (2,5 rpm): 7400 mPas
  BF-Viskosität (5 rpm): 7200 mPas
[3]; [16]
  BF-Viskosität (2,5 rpm): 46400 mPas
  BF-Viskosität (5 rpm): 40400 mPas
[3]; [17]
  BF-Viskosität (2,5 rpm): 33200 mPas
  BF-Viskosität (5 rpm): 29000 mPas
[3]; [18]
  BF-Viskosität (2,5 rpm): 43200 mPas
  BF-Viskosität (5 rpm): 38800 mPas
[3]; [19]
  BF-Viskosität (2,5 rpm): 4000 mPas
  BF-Viskosität (5 rpm): 3800 mPas
[3]; [20]
  BF-Viskosität (2,5 rpm): 15600 mPas
  BF-Viskosität (5 rpm): 15000 mPas
[3]; [21]
  BF-Viskosität (2,5 rpm): 9200 mPas
  BF-Viskosität (5 rpm): 8700 mPas
[3]; [22]
  BF-Viskosität (2,5 rpm): 27600 mPas
  BF-Viskosität (5 rpm): 25600 mPas
[3]; [23]
  BF-Viskosität (2,5 rpm): 12800 mPas
  BF-Viskosität (5 rpm): 12400 mPas
[4]; [6]
  Aussehen nach 24 h: transparent Gel-flüssig
[4]; [7]
  Aussehen nach 24 h: opaleszent Phasenseparation
[4]; [8]
  Aussehen nach 24 h: weiß Phasenseparation
[4]; [24]
  Aussehen nach 24 h: transparent; also recorded: flüssig
[4]; [25]
  Aussehen nach 24 h: transparent and Gel
[4]; [26]
  Aussehen nach 24 h: Weiß and Flüssig
[4]; Reinigungsformulierung enthaltend Natriumlaurylethersulfat, Dinatriumcocoamphodiacetat, 0,5 % NaCl, +0,5 %
  Aussehen nach 24 h: transparent Gel
[4]; Reinigungsformulierung enthaltend Natriumlaurylethersulfat, Dinatriumcocoamphodiacetat, 0,5 % NaCl, +0,25 %
  Aussehen nach 24 h: transparent Gel-flüssig
[4]; Reinigungsformulierung enthaltend Natriumlaurylethersulfat, Dinatriumcocoamphodiacetat, 0,5 % NaCl, +1 %
  Aussehen nach 24 h: transparent Gel
[4]; Reinigungsformulierung enthaltend Natriumlaurylethersulfat, Dinatriumcocoamphodiacetat, 0,5 % NaCl, +2 %
  Aussehen nach 24 h: opaleszent flüssig
[4]; Reinigungsformulierung enthaltend Natriumlaurylethersulfat, Dinatriumcocoamphodiacetat, 1 % NaCl, +0,5 %
  Aussehen nach 24 h: transparent Gel
[4]; Reinigungsformulierung enthaltend Natriumlaurylethersulfat, Dinatriumcocoamphodiacetat, 1 % NaCl, +0,25 %
  Aussehen nach 24 h: transparent Gel
[4]; Reinigungsformulierung enthaltend Natriumlaurylethersulfat, Dinatriumcocoamphodiacetat, 1 % NaCl, +1 %
  Aussehen nach 24 h: transparent Gel
[4]; Reinigungsformulierung enthaltend Natriumlaurylethersulfat, Dinatriumcocoamphodiacetat, 1 % NaCl, +2 %
  Aussehen nach 24 h: weiß flüssig
[4]; Reinigungsformulierung enthaltend Natriumlaurylethersulfat, Dinatriumcocoamphodiacetat, +0,5 %
  Aussehen nach 24 h: transparent Gel-flüssig
[4]; Reinigungsformulierung enthaltend Natriumlaurylethersulfat, Dinatriumcocoamphodiacetat, +0,25 %
  Aussehen nach 24 h: transparent flüssig
[4]; Reinigungsformulierung enthaltend Natriumlaurylethersulfat, Dinatriumcocoamphodiacetat, +1 %
  Aussehen nach 24 h: transparent Gel
[4]; Reinigungsformulierung enthaltend Natriumlaurylethersulfat, Dinatriumcocoamphodiacetat, +2 %
  Aussehen nach 24 h: opaleszent flüssig
[5]; [6]
  pH: 6
[5]; [7]
  pH: 6
[5]; [8]
  pH: 6,1
[5]; [24]
  pH: 6,3
[5]; [25]
  pH: 6,35
[5]; [26]
  pH: 6,4
